Test results as given in paper PMC5256054 (Iranian Journal of Parasitology, 2016).

Legend:
P. falciparum strain K1 = conditions: read-out: IC50, P. falciparum strain K1; erythrocytic stages in vitro; ref [8]; cited from earlier work
[1] = test system: P. falciparum strain NF54; conditions: read-out: IC50, P. falciparum strain NF54; erythrocytic stages in vitro; ref [8]; cited from earlier work
[2] = test system: P. falciparum 3D7 chloroquine (CQ) sensitive strain; assay: In vitro antiplasmodial test, Giemsa-stained smear parasitemia count; type: cell-based; conditions: Plasmodium falciparum, 3D7, 24 h, read-out: P. falciparum IC50

Structure (SMILES)	IC50 (P. falciparum strain K1)	IC50 [1]	IC50 [2]
COc1cc(C=C2Oc3cc(OC(C)=O)cc(OC(C)=O)c3C2=O)cc(OC)c1OC(C)=O [4,6,4′-triacetyl-3′,5′-dimethoxy-2-aurone]	7 nM	180 nM	
CCN(CC)CCCC(C)Nc1ccnc2cc(Cl)ccc12 (stereo not drawn) [CQ, Chloroquine]			775 nM
